Source: EP0385952A2, “Use of a naphthalenmethanamino derivative as antiinflammatory agent and pharmaceutical compositions containing it” (SANDOZ AG, priority 1989, dated 1990)
Read-outs that look alike come from different tables or passages of the source. Marks after values point to notes of the source that are not given here.

Assays:
[1] = system: Macrophages isolated from the bone marrow of mice; experiment: Inhibition of Con A-stimulated plasminogen activator release; assay type: cell-based; details: Mus musculus, Macrophage; Con A 100 µg/ml, 24 hours; read-out: IC₅₀, Con A-stimulated plasminogen activator release
Procedure: Macrophages 10 to 14 days old isolated from the bone marrow of mice are incubated in monolayers with the test compound in the presence of Concanavalin A (Con A) (100 µg/ml) as soluble stimulant. After 24 hours the cell-free medium is collected and macrophage activation is investigated biochemically as the extent of plasminogen activator release, assayed photometrically as the plasminogen-dependent amidolysis of D-Val-Phe-Lys-4-nitroanilide according to the principles described in J.C. Drapier et al., Biochemie 61 (1979) 463-471. Cell viability is assayed by measurement of lactate dehydrogenase release according to the method of H.U. Bergmeyer and E. Bernt, Methoden der Enzymatischen Analyse, 3. Auflage, Verlag Chemie (1974) 612-615, adapted as a kinetic assay using microtiter plates. All cultures are checked microscopically for qualitative morphological modification.

human neutrophils = experiment: Zymosan-stimulated superoxide release; assay type: cell-based; details: Neutrophil, read-out: IC₅₀ for zymosan-stimulated superoxide release
5-lipoxygenase = molecular target: T1, 5-lipoxygenase (Homo sapiens, UniProt P09917); experiment: 5-lipoxygenase inhibition (neutrophil functions); assay type: cell-based; details: read-out: IC₅₀ for 5-lipoxygenase
T1 construct: endogenous in cells
T1 sequence (P09917 1-674): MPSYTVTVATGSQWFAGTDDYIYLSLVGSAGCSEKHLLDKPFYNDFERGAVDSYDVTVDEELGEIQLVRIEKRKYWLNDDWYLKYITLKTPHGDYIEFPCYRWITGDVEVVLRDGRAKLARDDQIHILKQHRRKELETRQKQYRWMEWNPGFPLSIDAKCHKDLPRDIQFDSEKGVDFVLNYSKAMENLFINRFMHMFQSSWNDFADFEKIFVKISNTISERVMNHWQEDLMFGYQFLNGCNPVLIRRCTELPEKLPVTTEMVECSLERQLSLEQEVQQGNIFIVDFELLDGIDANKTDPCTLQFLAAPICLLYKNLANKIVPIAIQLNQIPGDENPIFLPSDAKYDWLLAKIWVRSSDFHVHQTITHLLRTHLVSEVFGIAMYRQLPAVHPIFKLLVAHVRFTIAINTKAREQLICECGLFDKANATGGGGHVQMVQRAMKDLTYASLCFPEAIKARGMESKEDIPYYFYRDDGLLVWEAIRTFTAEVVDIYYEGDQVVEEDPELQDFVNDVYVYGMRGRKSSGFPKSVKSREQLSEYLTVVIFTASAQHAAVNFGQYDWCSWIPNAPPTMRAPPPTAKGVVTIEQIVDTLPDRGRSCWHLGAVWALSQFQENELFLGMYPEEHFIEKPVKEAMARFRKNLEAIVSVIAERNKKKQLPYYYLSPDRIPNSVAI

5,12-lipoxygenase = 5,12-lipoxygenase inhibition (neutrophil functions); assay type: cell-based; details: read-out: IC₅₀ for 5,12-lipoxygenase
bovine platelets = experiment: Thrombin-stimulated release from platelets; assay type: cell-based; details: Bos taurus, Platelet
mast cells = experiment: Polymyxin-stimulated release from mast cells; assay type: cell-based; details: Mast cell
[2] = system: Cyclooxygenase (prostaglandin synthetase); experiment: Cyclooxygenase inhibition; assay type: biochemical; details: at 100 µM
NMRI mice [3] = experiment: Cantharidin-induced pinnal swelling in mice (irritant contact dermatitis, 2.1.1.); assay type: in vivo; details: epicutaneous, pinnal weight
Procedure: (§1) Skin irritation with arachidonic acid or cantharidin is often used to experimentally induce inflammation in order to evaluate the anti-inflammatory activity of a compound [see e.g. Inflammation 8 (1984) 134-135; 10 (1986) 205-214]. NMRI mice (8 animals per group) receive 10 µl of a 10 % solution of arachidonic acid [J.M. Young et al., J. Invest. Derm. 82 (1986) 367-371] in acetone or, respectively, 0.08 % cantharidin [K.E. Swingle et al., Arch. Int. Pharmacodyn. Ther. 254 (1981) 168-176] in acetone applied to the medial and lateral surface of the right external ear. Treatment is performed either prophylactically 30 minutes before irritation (arachidonic acid) or, respectively, either simultaneously with the application of irritant solution or therapeutically 20 minutes after irritation (cantharidin), by a single epicutaneous application of the test compound dissolved in a mixture of N,N-dimethylacetamide, acetone and alcohol (2:2:4). The evaluation of the test group is effected by comparison with a control group of animals having received on the right ear lobe only the carrier substance or the irritant solution. The animals are killed 1.5 hours (arachidonic acid) or, respectively, 17 hours (cantharidin) after application of the irritant and efficacy in assessed by determination of the differences in auricular weight. Differences in weights (D) of right (involved) and left (uninvolved) pinnae of animals treated with test compound and arachidonic acid or cantharidin (T-group) are compared with differences in mice treated with arachidonic acid only or cantharidin only (C-group). Efficacy (%) is calculated according to the equation: [formula]

mice [4] = experiment: Croton oil-induced pinnal swelling in mice (irritant contact dermatitis, 2.1.2.); assay type: in vivo; details: simultaneous, topical, pinnal weight after 6 hours
Procedure: as §1
(§2) This model is similar to the above (see 2.1.1.). Skin inflammation is induced with 15 µl of 0.23 % croton oil in a mixture of dimethylacetamide, acetone and ethanol (2:4:4), or with 10 µl of 0.005 % TPA [12-O-tetradecanoylphorbol-13-acetate; Sigma] prepared in acetone with 0.5 % dimethylsulfoxide. Topical treatment is performed either simultaneously with the irritation (croton oil) or 20 minutes after the application (TPA). The test compound is prepared in DAE. Efficacy is assessed 6 hours after onset of irritation by determination of the auricular weight as described above.

mice [5] = experiment: TPA-induced pinnal swelling in mice (irritant contact dermatitis, 2.1.2.); assay type: in vivo; details: therapeutic, topical, pinnal weight after 6 hours
Procedure: as §1, §2

NMRI mice [6] = experiment: Allergic contact dermatitis to oxazolone (2.3.); assay type: in vivo; details: therapeutic, test concentration 3.6 %, topical twice, pinnal weight after 24 hours, 0̸ = no activity
Procedure: Skin irritation with arachidonic acid or cantharidin is often used to experimentally induce inflammation in order to evaluate the anti-inflammatory activity of a compound [see e.g. Inflammation 8 (1984) 134-135; 10 (1986) 205-214]. NMRI mice (8 animals per group) receive 10 µl of a 10 % solution of arachidonic acid [J.M. Young et al., J. Invest. Derm. 82 (1986) 367-371] in acetone or, respectively, 0.08 % cantharidin [K.E. Swingle et al., Arch. Int. Pharmacodyn. Ther. 254 (1981) 168-176] in acetone applied to the medial and lateral surface of the right external ear. […] The animals are killed 1.5 hours (arachidonic acid) or, respectively, 17 hours (cantharidin) after application of the irritant and efficacy in assessed by determination of the differences in auricular weight. […] Efficacy (%) is calculated according to the equation: [formula]
The inhibition of allergic contact dermatitis to oxazolone in mice is determined. […] 24 hours after skin testing treatment-related inhibition of contact dermatitis is assessed by pinnal weight as described above (see 2.1.1.). […]

## CN(C/C=C/c1ccc(O)cc1)Cc1cccc2ccccc12 [compound of the invention, (E)-N-methyl-N-[3-(4-hydroxyphenyl)-2-propenyl]-1-naphthalene-methanamine]
[1]
  IC50: 1.8 µM
Human neutrophils
  IC50: > 100 µM
5-lipoxygenase
  IC50: 44 µM
5,12-lipoxygenase
  IC50: 45 µM
Bovine platelets; read-out: IC₅₀ for thrombin-stimulated release of N-glucosaminidase
  IC50: > 100 µM
Bovine platelets; read-out: IC₅₀ for thrombin-stimulated release of serotonin
  IC50: > 100 µM
Mast cells; read-out: IC₅₀ for polymyxin-stimulated release of histamine
  IC50: > 100 µM
Mast cells; read-out: IC₅₀ for polymyxin-stimulated release of β-glucosaminidase
  IC50: > 100 µM
[2]
  Cyclooxygenase (prostaglandin synthetase) inhibition: not inhibited
NMRI mice [3]; simultaneous, test concentration 1.2 %
  Efficacy (%): 26%
NMRI mice [3]; simultaneous, test concentration 3.6 %
  Efficacy (%): 52** %
NMRI mice [3]; therapeutic, test concentration 1.2 %
  Efficacy (%): 25%
NMRI mice [3]; therapeutic, test concentration 3.6 %
  Efficacy (%): 50** %
Mice [4]; test concentration 1.2 %
  Efficacy (%): 67** %
Mice [4]; test concentration 3.6 %
  Efficacy (%): 81** %
Mice [5]; test concentration 1.2 %
  Efficacy (%): 51%
Mice [5]; test concentration 3.6 %
  Efficacy (%): 60*** %
NMRI mice [6]
  Efficacy (%): 42** %
